Source: publication PMC10413841, “Exploration of Thiourea-Based Scaffolds for the Construction of Bacterial Ureases Inhibitors” (ACS Omega, 2023)
“And” between values parts separate entries of the source, which are not always exact repeats. Identical values can stand only once. Like-named read-outs stand apart in the source and are kept apart here.

Experiments:
[1] = biological target: T1, native S. pasteurii CCM 2056 urease (Sporosarcina pasteurii, UniProt P41020); assay: Inhibition of purified native urease, indophenol (Berthelot) ammonia assay; format: biochemical; conditions: for Ki: purified native enzyme, EI dissociation constant from Lineweaver-Burke plots, urea up to 30 mM, 3 mM phosphate buffer; for α quantifier between ESI dissociation constant Ki* and EI dissociation constant Ki / type (mode) of inhibition: purified S. pasteurii urease
T1 construct: The S. pasteurii CCM 2056 cells were used as the source of a native enzyme; endogenous in cells; host or cells: S. pasteurii CCM 2056 culture; endogenous enzyme purified in house from the sonicated cell extract by five-step chromatography
Experimental: The kinetic properties of the compounds as potential urease inhibitors were evaluated against native enzyme purified from S. pasteurii CCM 2056 culture. Residual enzyme activity was expressed as ammonia release from urea followed quantitively using the Berthelot reaction. All of the studied structures were reversibly inhibitory, with dissociation constants ranging from submicromolar to moderate micromolar concentrations (Table 1). The α quantifier between the enzyme-substrate-inhibitor complex (ESI) dissociation constant Ki* and the EI dissociation constant Ki [drawing 1] was calculated to determine the influence of substrate binding on the stability of the EI complex. […] For modeled compounds 19, 16, and 29, the values of α were 152.01, 38.04, and 14.52, respectively. […] For comparison, the α value of compound 52 was 1.37.
The S. pasteurii CCM 2056 cells were used as the source of a native enzyme. The culture medium was made of 20 g/L yeast extract. One day after the inoculation, the medium was further supplemented with 1 mM NiCl2 and 1% urea. After 2 more days of growth, the cells were centrifuged and disintegrated via sonication. Enzyme purification from the cell extract was conducted using a five-step chromatographic method as previously reported.[50]
Inhibition of the purified urease was measured using the indophenol assay for ammonia concentration.[65] The kinetic assays in 3 mM phosphate buffer contained the purified enzyme, studied thiourea analogues, and a range of urea concentrations up to saturating 30 mM. Total progress curves were analyzed with the addition of the enzyme at the reaction start. Assays were terminated with the sequential addition of 100 μL of M1 ([…] sodium nitroprusside, 0.53 M phenol) and M2 (0.625 M sodium hydroxide, 47.1 mM sodium hypochlorite) solution to 50 μL of reaction mixture sample. After 15 min of color development, absorbance at 650 nm was measured. […] In order to verify the inhibition mode as well as calculate the dissociation constant for EI complex, Lineweaver–Burke curves were plotted (1/v = f(1/[S])). For noncompetitive or mixed inhibition mode, Ki was calculated from plots of the LB curves slope as a function of inhibitor concentration.

[2] = test system: live cells of S. pasteurii CCM 2056; assay: Whole-cell ureolysis: ammonia release from urea in live cells; format: cell-based, Sporosarcina pasteurii; conditions: for IC50: Sporosarcina pasteurii, CCM2056
[3] = test system: live cells of P. mirabilis PCM 543; assay: as above; format: cell-based, Proteus mirabilis; conditions: urea hydrolysis in live cells, 30 mM urea, 10 mM PBS, read-out: IC50 [μM] (± SD) P. mirabilis cells
Experimental: Proteus mirabilis PCM 543 was cultured as described for S. pasteurii except for nickel ions—0.3 mM NiCl2 was used in the growth medium. Cells harvested by centrifugation were resuspended in 10 mM PBS and used for urease activity measurements. Assays were conducted in 10 mM PBS containing 30 mM urea and different concentrations of urease inhibitors and ammonia quantified by indophenol assay.

[4] = biological target: T1, native S. pasteurii CCM 2056 urease; set-up: method as in PMID 25699141; conditions: previously reported; read-out: Ki against purified enzyme from S. pasteurii; cited from earlier work
[5] = test system: live cells of P. mirabilis PCM 543; set-up: method as in PMID 27550502; conditions: 1 mM acetohydroxamate; remaining ureolysis in P. mirabilis PCM 543; cited from earlier work
[6] = biological target: purified enzyme from P. mirabilis; set-up: method as in PMID 25699141; conditions: previously reported; read-out: Ki against purified enzyme from P. mirabilis; cited from earlier work
[7] = urea hydrolysis in live cells, 30 mM urea, 10 mM PBS, read-out: IC50 [μM] (± SD) S. pasteurii cells

T1 sequence (P41022 whole entry): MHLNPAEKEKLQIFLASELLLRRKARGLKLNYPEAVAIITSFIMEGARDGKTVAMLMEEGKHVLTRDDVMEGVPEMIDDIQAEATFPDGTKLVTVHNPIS
T1 sequence (P41021 whole entry, further chain): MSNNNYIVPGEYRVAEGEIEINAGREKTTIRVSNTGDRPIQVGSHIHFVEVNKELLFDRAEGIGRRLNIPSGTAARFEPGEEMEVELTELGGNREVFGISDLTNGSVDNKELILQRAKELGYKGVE
T1 sequence (P41020 whole entry): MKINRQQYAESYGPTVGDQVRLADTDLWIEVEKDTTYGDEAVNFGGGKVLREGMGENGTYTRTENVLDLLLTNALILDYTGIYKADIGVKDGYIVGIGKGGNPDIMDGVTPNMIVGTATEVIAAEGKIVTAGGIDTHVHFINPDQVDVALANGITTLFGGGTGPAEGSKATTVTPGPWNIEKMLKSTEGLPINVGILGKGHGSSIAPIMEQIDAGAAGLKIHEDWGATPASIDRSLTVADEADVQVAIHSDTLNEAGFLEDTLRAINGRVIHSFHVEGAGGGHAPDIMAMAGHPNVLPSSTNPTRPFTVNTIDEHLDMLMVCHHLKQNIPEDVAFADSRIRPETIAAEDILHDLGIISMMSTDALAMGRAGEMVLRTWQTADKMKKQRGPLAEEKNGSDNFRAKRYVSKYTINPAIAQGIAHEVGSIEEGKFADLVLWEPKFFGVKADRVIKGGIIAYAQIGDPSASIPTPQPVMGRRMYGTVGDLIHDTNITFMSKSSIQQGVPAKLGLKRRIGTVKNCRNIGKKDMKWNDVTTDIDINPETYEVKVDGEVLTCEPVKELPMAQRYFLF

Row | SMILES | Ki ([1]; read-out: Ki [μM] (± SD)) | IC50 [2, 7] [µM] | IC50 ([3]; Proteus mirabilis) [µM] | other results
1 | NC(=S)N/N=C(\C=C\c1ccc(F)cc1)c1ccccc1 [Compound 24, (E)-2-((E)-3-(4-Fluorophenyl)-1-phenylallylidene)hydrazine-1-carbothioamide] | 24.2 ± 1.52 µM | 36.2 ± 2.84 | 510 ± 17.8 | 
2 | Cc1ccc(/C=C/C(=N\NC(N)=S)c2ccccc2)cc1 [Compound 22, (E)-2-((E)-1-Phenyl-3-(p-tolyl)allylidene)hydrazine-1-carbothioamide] | 5.18 ± 0.691 µM | 764 ± 50.3 | 1110 ± 126 | 
3 | Cc1ccc(/C=N/NC(N)=S)cc1 [Compound 16, (E)-2-(4-Methylbenzylidene)hydrazine-1-carbothioamide] | 0.99 µM and 0.998 µM | 9.92 ± 1.31 | 282 ± 32.4 | α quantifier between ESI dissociation constant Ki* and EI dissociation constant Ki [1]: 38.04
4 | NC(=S)N/N=C(\C=C\c1ccc(Cl)cc1)c1ccccc1 [Compound 23, (E)-2-((E)-3-(4-Chlorophenyl)-1-phenylallylidene)hydrazine-1-carbothioamide] | 14.9 ± 2.01 µM | 58.4 ± 3.21 | 430 ± 26.9 | 
5 | NC(=S)N/N=C/c1ccccc1 [Compound 15, (E)-2-Benzylidenehydrazine-1-carbothioamide] | 3.57 ± 0.182 µM | 3.83 ± 0.282 | 347 ± 23.1 | IC50 ([2]; Gram-positive S. pasteurii cells, ureolysis inhibition, read-out: IC50 in S. pasteurii cells (unit inferred)): 3.8 ± 0.2 µM
6 | NNC(=S)N/N=C/c1ccccc1 [Compound 27, (E)-N′-Benzylidenehydrazinecarbothiohydrazide] | 8.31 ± 0.438 µM | 11.6 ± 0.65 | 544 ± 17.9 | 
7 | NC(=S)N/N=C(\C=C\c1ccccc1)c1ccc(O)cc1 [Compound 25, (E)-2-((E)-1-(4-Hydroxyphenyl)-3-phenylallylidene)hydrazine-1-carbothioamide] | 5.4 ± 0.327 µM | 149 ± 8.7 | 763 ± 41.1 | type (mode) of inhibition [1]: noncompetitive
8 | S=C(NCc1ccccc1)Nc1nc(-c2ccc(Br)cc2)cs1 [Compound 53, 1-Benzyl-3-(4-(4-bromophenyl)thiazol-2-yl)thiourea] | 10.7 ± 0.79 µM | 416 ± 32.4 | 638 ± 48.2 | 
9 | S=C(NCc1ccccc1)Nc1nc(-c2ccccc2)cs1 [Compound 49, 1-Benzyl-3-(4-phenylthiazol-2-yl)thiourea] | 46 ± 3.71 µM | 476 ± 26.1 | 554 ± 18.8 | 
10 | NC(=S)N/N=C/c1ccc(Cl)cc1 [Compound 17, (E)-2-(4-Chlorobenzylidene)hydrazine-1-carbothioamide] | 8.15 ± 0.908 µM | 16.4 ± 0.94 | 454 ± 26.3 | 
11 | Oc1ccc(-c2csc(NC(=S)NCc3ccccc3)n2)cc1 [Compound 52, 1-Benzyl-3-(4-(4-hydroxyphenyl)thiazol-2-yl)thiourea] | 2.76 µM | 76.3 ± 4.5 | 304 ± 14 | type (mode) of inhibition [1]: noncompetitive inhibition; α quantifier between ESI dissociation constant Ki* and EI dissociation constant Ki [1]: 1.37; fold change of inhibitory activity (IC50) against S. pasteurii cells compared to nonhydroxylated analogue 49 ([2]; 52 versus 49): over 6 fold; IC50 [3]: 304 ± 13.9 µM
12 | NC(=S)N/N=C(\C=C\c1ccccc1)c1ccccc1 [Compound 21, (E)-2-((E)-1,3-Diphenylallylidene)hydrazine-1-carbothioamide] | 6.13 ± 0.714 µM | 102 ± 8.4 | 519 ± 27.6 | type (mode) of inhibition [1]: noncompetitive
13 | COc1ccc(-c2csc(NC(=S)NCc3ccccc3)n2)c(OC)c1 [Compound 51, 1-Benzyl-3-(4-(2,4-dimethoxyphenyl)thiazol-2-yl)thiourea] |  | 326 ± 18.7 | 509 ± 31.6 | Ki ([1]; Ki [μM] (± SD)): 22.2 ± 2.66 µM
14 | Cc1ccc(/C=N/NC(=S)NN)cc1 [Compound 28, (E)-N′-(4-Methylbenzylidene)hydrazinecarbothiohydrazide] | 13.5 ± 3.16 µM | 118 ± 7.7 | 664 ± 35.2 | 
15 | CC(=O)NO [acetohydroxamate] |  |  |  | Ki [4]: 3.3 ± 0.4 µM; whole-cell ureolysis reduced to [5]: 42 ± 6%; Ki [6]: 5.7 ± 0.4 µM
